Test results reported in paper PMC6283615, “Anilinoquinoline based inhibitors of trypanosomatid proliferation” (PLoS Neglected Tropical Diseases, 2018).
Where two headings read alike, the source gives them in different places.

Legend:
[1] = Human plasma protein binding; assay type: in vitro ADME; settings: read-out: Human PPB (converted)
[2] = Plasma and brain pharmacokinetics after single i.p. dose; assay type: in vivo; settings: 10 mg/kg i.p., female BALB/c mice; for Kp: female, BALB/c, brain/plasma, 10 mg/kg
Experimental: PK parameters were measured for both brain and plasma following a single intraperitoneal (i.p.) dose of 10 mg/kg (see Supplementary information, S5 and S6 Tables).
Table S5. Pharmacokinetic parameters of NEU-1060 (compound 14) in plasma and brain following a single intraperitoneal administration in female BALB/c mice (Dose:
Compound Dose Route Matrix Tmax Cmax AUClast AUCinf […]
*The density of brain homogenate was considered as 1 which is equivalent to plasma density (1); Brain conc. and exposure expressed as ng/g and hr.ng/g, respectively.
NC – not calculated due to improper elimination phase
Table S6. Brain to plasma exposure ratio of NEU-1060 (compound 14) after a single intraperitoneal administration in female BALB/c mice (Dose: 10 mg/kg)
Compound Dose Route Matrix Cmax Cmax AUClast Brain to plasma
(mg/kg) (ng/mL) ratio (hr*ng/mL) exposure ratio

[3] = test system: T. cruzi amastigote (Tulahuen strain expressing β-galactosidase); test: Intracellular T. cruzi assay in 3T3 cells (beta-galactosidase, 96 h); assay type: cell-based, Trypanosoma cruzi; settings: for EC50: Trypanosoma cruzi, TULAHUEN, NIH3T3, 96 h, read-out: T. cruzi amastigote EC50
How it was run: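 3T3 cells in phenol-red-free DMEM with 2% FBS were infected with Tulahuen β-galactosidase trypomastigotes, 5×10^4 per well, and exposed to compounds from 50 μM in 1:2 serial dilutions, in triplicate. After 96 h at 37°C, 5% CO2, 500 μM CPRG in PBS with 0.5% NP40 was added for 4 h; absorbance was read at 590–595 nm.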

[4] = test system: T. b. brucei (strain 427); test: T. b. brucei proliferation assay (PrestoBlue, 48 h); assay type: cell-based, Trypanosoma brucei brucei; settings: Trypanosoma brucei
How it was run: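 T. b. brucei strain 427, 2.5×10^3 per well in HMI-9, exposed to compounds from 50 μM in 1:2 dilutions, in triplicate. Incubated 48 h at 37°C, 5% CO2. PrestoBlue added for 4 h more, fluorescence read at ex 530/em 590 nm.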

[5] = test system: NIH/3T3 cells; test: Drug toxicity to 3T3 cells (Alamar Blue, 96 h); assay type: cell-based
[6] = test system: HepG2 cells; test: Drug toxicity to HepG2 cells (MTT, 48 h); assay type: cell-based, human; settings: tested concentration ranges based on compound solubility
How it was run: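 HepG2 cells plated overnight, then exposed 48 h to twelve 1.6-fold dilutions (57–10,000 ng/mL) in duplicate at 37° C, 5% CO2. MTT added for 1 h at room temperature; formazan dissolved in acidified isopropanol, absorbance read.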

| Compound | fraction unbound [1] | Brain to plasma exposure ratio ([2]; AUClast based, listed as NEU-1060, 10 mg/kg) | AUClast ([2]; brain) [ng·h/g] | Kp ([2]; mouse, ip, AUClast based, read-out: Brain to plasma exposure ratio) | Kp ([2]; mouse, ip, brain to plasma, read-out: Cmax ratio) | Cmax ([2]; mouse, ip, brain) [ng/g] | Tmax ([2]; mouse, ip, brain) [h] | AUC(0-t) ([2]; mouse, ip, plasma) [ng·h/mL] | Cmax ([2]; mouse, ip, plasma) [ng/mL] | Tmax ([2]; mouse, ip, plasma) [h] | EC50 [3] [µM] | SI (T. cruzi) ([3]; selectivity index calculated relative to 3T3 cells) | EC50 [4] [µM] | 3T3 TC50 [5] [µM] | HepG2 TC50 [6] [µM] |
| --- | --- | --- | --- | --- | --- | --- | --- | --- | --- | --- | --- | --- | --- | --- | --- |
| CN1CCN(c2ncc(-c3ccc4c(Nc5ccc(OCc6cccc(F)c6)c(Cl)c5)ccnc4c3)cn2)CC1 [Compound 14] | < 0.01 | 7.43 | 3474.83 | 7.4 | 2.85 | 211 | 4 | 468 | 74 | 0.25 | 0.09 | 170 | 0.006 |  |  |
| CN1CCN(c2ncc(-c3ccc4c(Nc5cnccn5)ccnc4c3)cn2)CC1 [Compound 22] |  |  |  |  |  |  |  |  |  |  | 6 |  |  | 34 | > 38 |
